System: Plasmodium berghei, the NK65 strain
Assay: Drug suppressive test against P. berghei in mice
Assay type: in vivo, Plasmodium berghei in Swiss outbred mice
Description: Adult Swiss outbred mice (20 ± 2 g weigh) were inoculated by the intraperitoneal route with 1 × 10^5 red blood cells infected withP. berghei, the NK65 strain. Groups of 20-30 infected mice were kept together for 2-24 h, then were divided randomly in groups of up to six animals per cage and were treated by gavage for three consecutive days with 25 mg/Kg or 50 mg/Kg of the test compounds diluted in DMSO 3% (v/v). Two control groups were used and either received CQ (20 mg/kg, diluted in water) or the drug vehicle. Smears prepared from the tail blood of the mice on days 5-10 post-infection were methanol-fixed, stained with Giemsa and examined microscopically.

With `CCN(CC)CCCC(C)Nc1ccnc2cc(Cl)ccc12` (stereo not drawn) [Chloroquine, chloroquine] the “Mice survival (increase)” value (20 mg/kg, increase compared to survival of nontreated controls) was > 8 days, the “Mice survival” value (mice, 20 mg/kg by gavage, three consecutive days) was > 30 days and the “Parasitaemia reduction at day 10” value (mice, 20 mg/kg by gavage, three consecutive days, in relation to untreated mice) was 100%.

Reference: PMC4660620, “Aspidosperma (Apocynaceae) plant cytotoxicity and activity towards malaria parasites. Part II: experimental studies with Aspidosperma ramiflorum in vivo and in vitro” (Memórias do Instituto Oswaldo Cruz, 2015)
